# In patent publication US11464763B2, “Parasiticidal compositions comprising an isoxazoline active agent, methods and uses thereof” (BOEHRINGER INGELHEIM ANIMAL HEALTH USA INC., priority 2011, dated 2022):
# Columns and labels:
# Ctenocephalides felis = assay: Spot-on efficacy at 1 mg/kg against Ctenocephalides felis fleas in cats (Example 7); format: in vivo; conditions: for efficacy against fleas: Group 2 (DMI)
# Experimental: The efficacy of several spot-on formulations comprising Cmpd. A dosed at 1 mg/kg body weight in different carrier vehicles against fleas in cats was studied. Five cats each were allocated to 6 Treatment Groups. The […] per study group were subjected to weekly infestations followed by 24 h flea counts for 5 to 8 weeks, according to the following Group allocations: Group 1—untreated control; Group 2-1.0% (w/v) Cmpd. A in DMI; Group 3-1.0% (w/v) Cmpd. A in diethyl sebacate (DES); Group 4-1.0% (w/v) Cmpd. A in 9% lauryl lactate+DES; Group 5—1% (w/v) Cmpd. A in 8% ethyl oleate+DES; and Group 6-1% (w/v) Cmpd. A in a vehicle comprising Transcutol®+10% (w/v) ethanol+5% polyvinylpyrrolidone+5% TWEEN 80. Cats were infested with approximately 100 C. felis on Day −1 and treated on Day 0 with the corresponding spot-on formulation by application of the formulation directly on the skin in the midline of the neck, between the base of the skull and the shoulder blades in a single spot using a 1 mL syringe. Twelve hours after treatment, fleas were removed and counted. The cats were immediately re-infested with approximately 100 fleas. Fleas were removed and counted on Day 1 at approximately 24 hours post-treatment. Cats were also infested with fleas on Days 7, 21, […], 35, 42 and 49. Fleas were removed and counted approximately 24 hours after infestation on Days 8, 22, 29, 36, 43 and 50.
# [1] = Accelerated stability of Cmpd. A in solvents at 50° C.; format: physicochemical
# Excerpt: An important aspect of the invention is to provide a multiple-use container comprising a topical composition of the invention, from which accurate single dose aliquots of the long lasting topical formulations may be administered. The formulation must remain stable with repetitive exposure to the outside environment, particularly oxygen and water. This embodiment may be particularly useful with the very long lasting formulations of the invention that require administration to an animal infrequently, such as once every 3-6 months, or similar. Some solvents such as ethers (including DMI, Transcutol® and the like) give rise to peroxides, which then yield ketones and aldehydes that may be further degraded to acids. The presence of acids may contribute to the degradation of acid hydrolysis-susceptible molecules, including isoxazoline active agents. Thus, formulation stability is particularly important for the multi-dose container application, where the formulations can be exposed to oxygen and water during multiple rounds of opening and closing. […]
# Rhipicephalus sanguineus = assay: Spot-on efficacy against Rhipicephalus sanguineus ticks in dogs, three DES formulations (Example 6); format: in vivo; conditions: for % Reduction: 48 h count
# Experimental: A further study was conducted to examine the efficacy of a topical formulations comprising Compound A in three different formulations containing DES against ticks in dogs. Twenty-four beagles were studied to determine the effectiveness against induced infestations of Rhipicephalus sanguineus of spot-on formulations comprising Cmpd. A in different carriers administered at 4.0 mg/kg to dogs.
# Treatment Group 1 dogs were treated with a placebo solution. Treatment Group 2 was treated with a formulation comprising 6% (w/v) Cmpd. A in DES; Treatment Group 3 were treated with a composition comprising 6% (w/v) Cmpd. A in 40% DES/DMI; and Treatment Group 4 were treated with a formulation comprising 6% (w/v) Cmpd. A in DES with 30% Capryol 90. All dogs were treated once topically on Day 0. Topical solutions were applied by parting the hair and applying the solution from a syringe directly onto the skin in a single spot on the midline of the neck between the base of the skull and the shoulder blades.
# All dogs were infested with approximately 50 R. sanguineus on Days −1, 7, 14, 21, 28, 35 and 42. Ticks were counted upon removal from dogs on Days 2, 9, 16, 23, 30, 37, and 44. All ticks were counted upon removal at 48 (±3) hours post treatment or infestation.
# The percent efficacies of the treated groups compared to the untreated control group were determined for the 48 hour post-treatment/infestation counts. Treatment Group 3 maintained ≥90% efficacy 48 hours after infestation at every sampling time from Day 9 through Day 44. Treatment Group 2 was able to maintain at least 90% efficacy 48 hours after infestation throughout the six weeks of the study.
structure (smiles),measurement,setting,value
"O=C(CNC(=O)c1ccc(C2=NOC(c3cc(Cl)cc(C(F)(F)F)c3)(C(F)(F)F)C2)c2ccccc12)NCC(F)(F)F (stereo not shown) [Compound A, 4-[5-[3-chloro-5-(trifluoromethyl)phenyl]-4,5-dihydro-5-(trifluoromethyl)-3-isoxazolyl]-N-[2-oxo-2-[(2,2,2-trifluoroethyl)amino]ethyl]-1-naphthalanecarboxamide]",efficacy against fleas,Ctenocephalides felis; until Day 50,above 85%
same,efficacy against fleas,Ctenocephalides felis; until at least Day 43,above 90%
same,% Reduction,"Ctenocephalides felis; Group 2: 1.0% in DMI, 1 mg/kg, Day 0 (12 hr)",22.3%
same,% Reduction,"Ctenocephalides felis; Group 2: 1.0% in DMI, 1 mg/kg, Day 1",28.0%
same,% Reduction,"Ctenocephalides felis; Group 2: 1.0% in DMI, 1 mg/kg, Day 8",99.3%
same,% Reduction,"Ctenocephalides felis; Group 2: 1.0% in DMI, 1 mg/kg, Day 22",99.5%
same,% Reduction,"Ctenocephalides felis; Group 2: 1.0% in DMI, 1 mg/kg, Day 29",98.5%
same,% Reduction,"Ctenocephalides felis; Group 2: 1.0% in DMI, 1 mg/kg, Day 36",94.2%
same,% Reduction,"Ctenocephalides felis; Group 2: 1.0% in DMI, 1 mg/kg, Day 43",94.3%
same,% Reduction,"Ctenocephalides felis; Group 2: 1.0% in DMI, 1 mg/kg, Day 50",87.7%
same,% Reduction,"Ctenocephalides felis; Group 3: 1.0% in DES, 1 mg/kg, Day 0 (12 hr)",9.6%
same,% Reduction,"Ctenocephalides felis; Group 3: 1.0% in DES, 1 mg/kg, Day 1",72.7%
same,% Reduction,"Ctenocephalides felis; Group 3: 1.0% in DES, 1 mg/kg, Day 8",99.7%
same,% Reduction,"Ctenocephalides felis; Group 3: 1.0% in DES, 1 mg/kg, Day 22",97.4%
same,% Reduction,"Ctenocephalides felis; Group 3: 1.0% in DES, 1 mg/kg, Day 29",95.1%
same,% Reduction,"Ctenocephalides felis; Group 3: 1.0% in DES, 1 mg/kg, Day 36",79.3%
same,% Reduction,"Ctenocephalides felis; Group 3: 1.0% in DES, 1 mg/kg, Day 43",72.2%
same,% Reduction,"Ctenocephalides felis; Group 3: 1.0% in DES, 1 mg/kg, Day 50",44.8%
same,% Reduction,"Ctenocephalides felis; Group 4: 1.0% in 9% lauryl lactate+DES, 1 mg/kg, Day 0 (12 hr)",9.2%
same,% Reduction,"Ctenocephalides felis; Group 4: 1.0% in 9% lauryl lactate+DES, 1 mg/kg, Day 1",36.5%
same,% Reduction,"Ctenocephalides felis; Group 4: 1.0% in 9% lauryl lactate+DES, 1 mg/kg, Day 8",99.7%
same,% Reduction,"Ctenocephalides felis; Group 4: 1.0% in 9% lauryl lactate+DES, 1 mg/kg, Day 22",98.5%
same,% Reduction,"Ctenocephalides felis; Group 4: 1.0% in 9% lauryl lactate+DES, 1 mg/kg, Day 29",98.1%
same,% Reduction,"Ctenocephalides felis; Group 4: 1.0% in 9% lauryl lactate+DES, 1 mg/kg, Day 36",89.3%
same,% Reduction,"Ctenocephalides felis; Group 4: 1.0% in 9% lauryl lactate+DES, 1 mg/kg, Day 43",92.7%
same,% Reduction,"Ctenocephalides felis; Group 4: 1.0% in 9% lauryl lactate+DES, 1 mg/kg, Day 50",79.2%
same,% Reduction,"Ctenocephalides felis; Group 5: 1% in 8% ethyl oleate+DES, 1 mg/kg, Day 0 (12 hr)",65.9%
same,% Reduction,"Ctenocephalides felis; Group 5: 1% in 8% ethyl oleate+DES, 1 mg/kg, Day 1",77.2%
same,% Reduction,"Ctenocephalides felis; Group 5: 1% in 8% ethyl oleate+DES, 1 mg/kg, Day 8",98.4%
same,% Reduction,"Ctenocephalides felis; Group 5: 1% in 8% ethyl oleate+DES, 1 mg/kg, Day 22",96.9%
same,% Reduction,"Ctenocephalides felis; Group 5: 1% in 8% ethyl oleate+DES, 1 mg/kg, Day 29",95.0%
same,% Reduction,"Ctenocephalides felis; Group 5: 1% in 8% ethyl oleate+DES, 1 mg/kg, Day 36",85.5%
same,% Reduction,"Ctenocephalides felis; Group 5: 1% in 8% ethyl oleate+DES, 1 mg/kg, Day 43",79.7%
same,% Reduction,"Ctenocephalides felis; Group 5: 1% in 8% ethyl oleate+DES, 1 mg/kg, Day 50",64.0%
same,% Reduction,"Ctenocephalides felis; Group 6: 1% in Transcutol+10% ethanol+5% polyvinylpyrrolidone+5% TWEEN 80, 1 mg/kg, Day 0 (12 hr)",17.7%
same,% Reduction,"Ctenocephalides felis; Group 6: 1% in Transcutol+10% ethanol+5% polyvinylpyrrolidone+5% TWEEN 80, 1 mg/kg, Day 1",75.6%
same,% Reduction,"Ctenocephalides felis; Group 6: 1% in Transcutol+10% ethanol+5% polyvinylpyrrolidone+5% TWEEN 80, 1 mg/kg, Day 8",100.0%
same,% Reduction,"Ctenocephalides felis; Group 6: 1% in Transcutol+10% ethanol+5% polyvinylpyrrolidone+5% TWEEN 80, 1 mg/kg, Day 22",99.3%
same,% Reduction,"Ctenocephalides felis; Group 6: 1% in Transcutol+10% ethanol+5% polyvinylpyrrolidone+5% TWEEN 80, 1 mg/kg, Day 29",97.5%
same,% Reduction,"Ctenocephalides felis; Group 6: 1% in Transcutol+10% ethanol+5% polyvinylpyrrolidone+5% TWEEN 80, 1 mg/kg, Day 36",93.8%
same,% Reduction,"Ctenocephalides felis; Group 6: 1% in Transcutol+10% ethanol+5% polyvinylpyrrolidone+5% TWEEN 80, 1 mg/kg, Day 43",93.9%
same,% Reduction,"Ctenocephalides felis; Group 6: 1% in Transcutol+10% ethanol+5% polyvinylpyrrolidone+5% TWEEN 80, 1 mg/kg, Day 50",79.6%
same,"change in assay, accelerated stability study","[1]; 12% (w/v) solution in DMI, eleven week, 50° C., clear glass containers",no significant change in assay
same,stability in solvents,"[1]; DES, DIPA, DMI, triacetin, GF and propylene carbonate, 50° C. in glass bottles",stable
same,% Reduction,"Rhipicephalus sanguineus; Group 2: 6% in DES, 4.0 mg/kg, Day 2",93.2%
same,% Reduction,"Rhipicephalus sanguineus; Group 2: 6% in DES, 4.0 mg/kg, Day 9",100.0%
same,% Reduction,"Rhipicephalus sanguineus; Group 2: 6% in DES, 4.0 mg/kg, Day 16",100.0%
same,% Reduction,"Rhipicephalus sanguineus; Group 2: 6% in DES, 4.0 mg/kg, Day 23",100.0%
same,% Reduction,"Rhipicephalus sanguineus; Group 2: 6% in DES, 4.0 mg/kg, Day 30",97.8%
same,% Reduction,"Rhipicephalus sanguineus; Group 2: 6% in DES, 4.0 mg/kg, Day 37",95.3%
same,% Reduction,"Rhipicephalus sanguineus; Group 2: 6% in DES, 4.0 mg/kg, Day 44",97.5%
same,% Reduction,"Rhipicephalus sanguineus; Group 3: 6% in 40% DES/DMI, 4.0 mg/kg, Day 2",72.8%
same,% Reduction,"Rhipicephalus sanguineus; Group 3: 6% in 40% DES/DMI, 4.0 mg/kg, Day 9",100.0%
same,% Reduction,"Rhipicephalus sanguineus; Group 3: 6% in 40% DES/DMI, 4.0 mg/kg, Day 16",100.0%
same,% Reduction,"Rhipicephalus sanguineus; Group 3: 6% in 40% DES/DMI, 4.0 mg/kg, Day 23",100.0%
same,% Reduction,"Rhipicephalus sanguineus; Group 3: 6% in 40% DES/DMI, 4.0 mg/kg, Day 30",100.0%
same,% Reduction,"Rhipicephalus sanguineus; Group 3: 6% in 40% DES/DMI, 4.0 mg/kg, Day 37",93.5%
same,% Reduction,"Rhipicephalus sanguineus; Group 3: 6% in 40% DES/DMI, 4.0 mg/kg, Day 44",82.9%
same,% Reduction,"Rhipicephalus sanguineus; Group 4: 6% in DES with 30% Capryol 90, 4.0 mg/kg, Day 2",97.2%
same,% Reduction,"Rhipicephalus sanguineus; Group 4: 6% in DES with 30% Capryol 90, 4.0 mg/kg, Day 9",100.0%
same,% Reduction,"Rhipicephalus sanguineus; Group 4: 6% in DES with 30% Capryol 90, 4.0 mg/kg, Day 16",100.0%
same,% Reduction,"Rhipicephalus sanguineus; Group 4: 6% in DES with 30% Capryol 90, 4.0 mg/kg, Day 23",100.0%
same,% Reduction,"Rhipicephalus sanguineus; Group 4: 6% in DES with 30% Capryol 90, 4.0 mg/kg, Day 30",98.4%
same,% Reduction,"Rhipicephalus sanguineus; Group 4: 6% in DES with 30% Capryol 90, 4.0 mg/kg, Day 37",96.1%
same,% Reduction,"Rhipicephalus sanguineus; Group 4: 6% in DES with 30% Capryol 90, 4.0 mg/kg, Day 44",78.1%
same,efficacy 48 hours after infestation,"Rhipicephalus sanguineus; Treatment Group 2, throughout the six weeks of the study",≥ 90%
same,efficacy 48 hours after infestation,"Rhipicephalus sanguineus; Treatment Group 3, Day 9 through Day 44",≥ 90%
